According to BindingDB's records for doi:10.1128/AAC.00448-06 (National Center For Genetic Engineering and Biotechnology …, 2006):

Key:
[1] = molecular target: Bifunctional dihydrofolate reductase-thymidylate synthase (Plasmodium vivax, UniProt O02604); experiment: Inhibitor Screening Using Bacterial System (IC50) and Measurement of Inhibition Constant (Ki); conditions: pH 7; 25 °C
Procedure: (§1) Nineteen Pyr analogs were studied for their inhibition activity against cells expressing either WT or SP21 mutant PvDHFR-TS. The assays were conducted with 96-well microplates by monitoring the growth at an optical density of 595 nm (A595). The average A595 of control culture omitting Pyr analogs was scored as 100% growth, and the average readings for the cultures at each drug concentration were divided by this value to obtain relative growth values. The concentrations that inhibited 50% bacterial growth (IC50s) were determined from dose-response curves. Inhibition constants (Ki) of antifolates were calculated using a nonlinear least square fit of the data to the Michaelis-Menten equation, assuming the inhibitor binds competitively to the enzyme active site.

[2] = molecular target: T1, Bifunctional dihydrofolate reductase-thymidylate synthase [1-238,S58R,S117N] (Plasmodium vivax, UniProt O02604, S117N/S58R); experiment: as above
T1 construct: 1-238
T1 sequence (O02604 1-238, looked up, stated change not applied): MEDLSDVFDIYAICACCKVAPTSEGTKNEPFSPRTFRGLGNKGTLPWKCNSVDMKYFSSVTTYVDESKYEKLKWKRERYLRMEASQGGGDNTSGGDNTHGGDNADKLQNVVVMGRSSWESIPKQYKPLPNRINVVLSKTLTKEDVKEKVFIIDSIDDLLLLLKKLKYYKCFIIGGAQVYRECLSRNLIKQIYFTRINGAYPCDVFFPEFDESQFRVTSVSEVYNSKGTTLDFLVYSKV
Procedure: as §1

Sequence of Bifunctional dihydrofolate reductase-thymidylate synthase (O02604 whole entry): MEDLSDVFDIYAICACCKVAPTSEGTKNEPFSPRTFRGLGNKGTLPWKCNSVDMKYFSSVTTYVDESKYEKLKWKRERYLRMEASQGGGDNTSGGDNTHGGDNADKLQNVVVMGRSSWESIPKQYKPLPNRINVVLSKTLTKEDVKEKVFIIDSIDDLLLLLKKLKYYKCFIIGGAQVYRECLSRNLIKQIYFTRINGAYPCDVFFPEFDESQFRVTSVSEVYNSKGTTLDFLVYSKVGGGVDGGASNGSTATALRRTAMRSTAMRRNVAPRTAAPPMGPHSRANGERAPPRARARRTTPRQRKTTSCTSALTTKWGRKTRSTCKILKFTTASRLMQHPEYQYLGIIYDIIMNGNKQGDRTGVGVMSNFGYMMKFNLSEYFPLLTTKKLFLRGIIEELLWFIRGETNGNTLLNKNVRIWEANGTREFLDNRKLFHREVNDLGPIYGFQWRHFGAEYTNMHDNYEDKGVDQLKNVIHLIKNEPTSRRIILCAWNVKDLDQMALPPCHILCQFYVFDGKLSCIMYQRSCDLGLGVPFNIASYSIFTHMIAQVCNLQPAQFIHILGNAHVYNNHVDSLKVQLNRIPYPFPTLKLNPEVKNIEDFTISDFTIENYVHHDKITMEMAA

SMILES	IC50 [1] [nM]	Ki [1] [nM]	IC50 [2] [nM]	Ki [2] [nM]
CCc1nc(N)nc(N)c1-c1ccc(Cl)cc1	180	0.21	20000	3.04
Cc1nc(N)nc(N)c1-c1ccc(Cl)cc1	1950	0.78	> 50000	63.4
COC(=O)CCCc1nc(N)nc(N)c1-c1ccc(Cl)cc1	200	0.69	> 50000	7.43
CCc1nc(N)nc(N)c1-c1ccc(OC)cc1	350	1.01	> 50000	37.8
CCc1nc(N)nc(N)c1-c1ccc(Cl)c(Cl)c1	70	0.52	10500	1.05
Nc1nc(N)c(-c2cccc(Cl)c2)c(CCCc2ccccc2)n1	2380	0.77	13900	1.32
CCc1nc(N)nc(N)c1-c1ccccc1	1820	0.03	1520	0.08
Cc1nc(N)nc(N)c1-c1ccccc1	11300	4.18	12800	22.5
Nc1nc(N)c(-c2ccccc2)c(CCCc2ccccc2)n1	800	0.53	2760	0.81
Nc1nc(N)c(-c2cccc(Cl)c2)c(CCOCCCOc2ccccc2)n1 [5-(3-chlorophenyl)-6-[2-(3-phenoxypropoxy)ethyl]pyrimidine-2,4-diamine]	2270	0.63	14200	1.53
CCc1nc(N)nc(N)c1-c1cccc(Cl)c1 [5-(3-chlorophenyl)-6-ethylpyrimidine-2,4-diamine]	360	0.31	300	0.54
Cc1nc(N)nc(N)c1-c1cccc(Cl)c1 [5-(3-chlorophenyl)-6-methylpyrimidine-2,4-diamine]	2120	0.69	1980	1.19
CCc1nc(N)nc(N)c1-c1ccc(Br)cc1 [5-(4-bromophenyl)-6-ethylpyrimidine-2,4-diamine]	90	0.78	30000	6.59
CC(C)Cc1nc(N)nc(N)c1-c1ccc(Cl)cc1 [5-(4-chlorophenyl)-6-(2-methylpropyl)pyrimidine-2,4-diamine]	220	1.4	18200	28.1
CCCCCCCCCc1nc(N)nc(N)c1-c1ccc(Cl)cc1 [5-(4-chlorophenyl)-6-nonylpyrimidine-2,4-diamine]	2200	4.29	> 50000	24.5
Nc1ncc(-c2ccc(Cl)cc2)c(N)n1 [5-(4-chlorophenyl)pyrimidine-2,4-diamine]	1520	3.42	> 50000	1080
CCc1nc(N)nc(N)c1-c1ccc(C(C)(C)C)cc1 [5-(4-tert-butylphenyl)-6-ethylpyrimidine-2,4-diamine]	1760	1.14	> 50000	47.5
CCc1nc(N)nc(N)c1-c1ccc(C)cc1 [6-ethyl-5-(4-methylphenyl)pyrimidine-2,4-diamine]	140	0.39	12400	2.21
CCCCCCc1nc(N)nc(N)c1-c1ccccc1 [6-hexyl-5-phenylpyrimidine-2,4-diamine]	230	–	3020	0.9
